Key:
[1] = test system: sensory panel of twelve testers; test: Sensory panel evaluation of initial sweetness characteristics of sweeteners in water (Example 1); assay type: in vivo; details: for behavior as compared to sucrose, all concentrations plotted: FIG. 12; for initial sweetness perception: FIG. 2/FIG. 4; for initial bitterness perception: FIG. 3/FIG. 5
Experimental: Sensory evaluations of different sweeteners at various concentrations were performed to provide comparative analysis of organoleptic characteristics of aqueous solutions of rebaudioside D, versus other sweeteners. The rebaudioside D was a stevia extract having a purity of at least 93% by weight rebaudioside D (Reb D). Initial sweetness characteristics of three concentrations of such Reb D in water were determined by a sensory panel of twelve testers. Sensory panels are well known to those of skill in the art, and comprise testers trained to evaluate the organoleptic attributes of comestibles. Typically, sensory panelists have been screened for their taste acuity and extensively trained in the use of standardized vocabulary to describe the appearance, aroma, flavor, mouthfeel and aftertaste of a wide variety of products, as well as scaling techniques to quantify the attributes. The numerical data generated by the sensory panel testers were then analyzed for their statistical significance.
The water employed in the tests of Example 1 comprised purified water as described in detail above, and having a pH of 7.0. The initial sweetness characteristics of 1200 parts per million (ppm) Reb D in water were compared to the initial sweetness characteristics of aqueous solutions of each of 1200 ppm rebaudioside A (Reb A), sucrose, aspartame and sucralose. The rebaudioside A was a stevia extract comprising a purity of 95% by weight rebaudioside A (PureCircle USA Inc., Oak Brook, Ill.). The specific attributes tested by the sensory panel comprised sweetness, thickness, astringency, bitterness, numbing, cooling and licorice.
The initial sweetness characteristics of other concentrations of rebaudioside D in water were also tested and compared to the same concentrations of rebaudioside A in water. […] FIGS. 2 through 5 illustrate the differences in the characteristics of sweetness and bitterness attributes between Reb D and Reb A.

[2] = test system: sensory panel of twelve testers; test: Sensory panel evaluation in water, noncarbonated beverage base and carbonated beverage base (Example 2); assay type: in vivo; set-up: Sweetness / Bitterness: scale not given here; details: for interaction between the sweetener and the three beverage bases (initial sweetness attribute plots): water, noncarbonated and carbonated beverage base; for Reb D Compared to Reb A % Ratio, Bitterness / Reb D Compared to Reb A % Ratio, Sweetness: ratio of Reb D to Reb A
Experimental: Potential beverage base effects on the initial sweetness perception of rebaudioside D were investigated by performing tests of three concentrations of rebaudioside D (Reb D) in water, in a noncarbonated beverage base, and in a carbonated beverage base, by a sensory panel of twelve testers. The numerical data generated by the sensory panel testers were then analyzed for their statistical significance.
The water employed for the tests of this Example comprised the characteristics as described in Example 1. The noncarbonated beverage base comprised purified water, and citric acid in an amount sufficient to decrease the pH of the noncarbonated beverage base to 3.1. The carbonated beverage base comprised purified water, carbon dioxide, and citric acid in an amount sufficient to decrease the pH of the noncarbonated beverage base to about 3.1. The initial sweetness characteristics of 606 parts per million (ppm) Reb D in water were compared to the initial sweetness characteristics of 606 ppm Reb D in noncarbonated beverage base and 606 ppm Reb D in carbonated beverage base.
The specific attributes tested by the sensory panel comprised sweetness, thickness, astringency, bitterness, numbing, cooling, licorice, burn/tingle and mouthcoat.

[3] = Sweetness intensity and quality of taste of steviol glycosides reported by Kinghorn (2002); details: from the Kinghorn values
From the text: In the book “Stevia, The genus Stevia”, edited by A. Douglas Kinghorn (2002), the structural differences, sweetness intensity and quality of taste between the steviol glycosides is reported on page 138. The relative quality of taste, as compared to stevioside, (i.e., stevioside is rated 0) of rebaudioside D was rated higher (+3) than rebaudioside A was rated (+2). Particular taste attributes that contributed to the quality of taste, however, were not individually rated. The sweetness of rebaudioside A was reported to have a value of 242, whereas the sweetness of rebaudioside D was reported to have a value of 221.

Water solubility = assay type: physicochemical; details: commercially available Reb D
From the text: The water solubility of commercially available Reb D is low, thus, according to certain embodiments of the invention, rebaudioside D is provided as a supersaturated solution of rebaudioside D in the beverage products disclosed herein. As used herein, the term “saturated” refers to the point of maximum concentration at which a solution of a substance (e.g., a rebaudioside D solution) can dissolve no more of that substance. The saturation point of a substance depends on the temperature of the liquid the substance is to be dissolved in, as well as the chemical natures of the liquid and the substance involved (e.g., the water and/or the rebaudioside D). As used herein, the term “supersaturated” refers to a solution that contains more of a dissolved material (e.g., rebaudioside D) than a saturated solution. Supersaturated solutions are typically achieved when one or more conditions of a saturated solution is changed, such as, e.g., temperature, volume (e.g., by evaporation), pressure or the like.

[4] = commonly accepted potency figures; cited from earlier work
[5] = Kinghorn (2002) page 138, cited from earlier work
[6] = 360 ppm, averaged across all three beverage bases
[7] = 606 ppm, averaged across all three beverage bases
[8] = 1200 ppm, averaged across all three beverage bases
[9] = CSD (carbonated beverage base), 360 ppm
[10] = CSD (carbonated beverage base), 606 ppm
[11] = High Level, 1200 ppm, averaged across all three beverage bases
[12] = Low-Medium Level, 360 ppm, averaged across all three beverage bases
[13] = Medium Level, 606 ppm, averaged across all three beverage bases
[14] = NCB (noncarbonated beverage base), 360 ppm
[15] = NCB (noncarbonated beverage base), 606 ppm

C=C1C[C@@]23CC[C@H]4[C@@](C)(CCC[C@@]4(C)C(=O)O[C@@H]4O[C@H](CO)[C@@H](O)[C@H](O)[C@H]4O[C@@H]4O[C@H](CO)[C@@H](O)[C@H](O)[C@H]4O)[C@@H]2CC[C@]1(O[C@@H]1O[C@H](CO)[C@@H](O)[C@H](O[C@@H]2O[C@H](CO)[C@@H](O)[C@H](O)[C@H]2O)[C@H]1O[C@@H]1O[C@H](CO)[C@@H](O)[C@H](O)[C@H]1O)C3 [Reb D, rebaudioside D]
overall attributes versus Reb A ([1]; 360, 606 and 1200 ppm in water, FIG. 8): less bitterness and astringency | behavior as compared to sucrose, all concentrations plotted ([1]; 360 ppm and 606 ppm Reb D in water): behaved more like sucrose than did any of the concentrations of Reb A | attributes of lower levels versus the same levels of Reb A ([1]; 360 ppm and 606 ppm in water, FIG. 8): less bitter, astringent, numbing and licorice | bitterness perception value less than same concentration of Reb A ([1]; 360 ppm in water): about 30 | initial sweetness perception ([1]; 360 ppm in water): about 62 | initial bitterness perception ([1]; 360 ppm in water): about 8 | initial sweetness attributes versus the same concentration of Reb A ([1]; 360 ppm in water, FIG. 7): significantly less astringency, bitterness and numbing | relative sweet properties (continuum regular sweet to artificial sweet-like) versus same concentration of Reb A ([1]; 360 ppm in water, FIG. 11): behaved more like sucrose | bitterness perception value less than same concentration of Reb A ([1]; 600 ppm in water): about 47 | initial sweetness attributes versus the same concentration of Reb A ([1]; 606 ppm in water, FIG. 6): significantly less astringency, bitterness and numbing | relative sweet properties (continuum regular sweet to artificial sweet-like) versus same concentration of Reb A ([1]; 606 ppm in water, FIG. 10): behaved more like sucrose | behavior as compared to sucrose, all concentrations plotted ([1]; 1200 ppm Reb D in water): behaved more like sucrose than did either 606 ppm Reb A or 1200 ppm Reb A | bitterness perception value less than same concentration of Reb A ([1]; 1200 ppm in water): about 67 | initial sweetness attributes versus the same concentration of Reb A ([1]; 1200 ppm in water, FIG. 1): significantly less astringency, bitterness and numbing | initial sweetness perception ([1]; 1200 ppm in water): about 108 | initial bitterness perception ([1]; 1200 ppm in water): about 18 | relative sweet properties (continuum regular sweet to artificial sweet-like) versus same concentration of Reb A ([1]; 1200 ppm in water, FIG. 9): behaved more like sucrose | numerical value of the bitterness perception versus Reb A ([1]; all concentrations in water): significantly lower | change in sweetness perception with an increase in concentration ([1]; in water, 360 to 1200 ppm): significant increase in sweetness perception | increase in bitterness perception with an increase in concentration, versus Reb A ([1]; in water, 360 to 1200 ppm): substantially lower | licorice attribute, 606 ppm Reb D versus 1200 ppm Reb D ([1]; in water, FIG. 6): lower value | correlation to the sweetness perception attributes of sucrose, versus rebaudioside A ([1]; in water, FIG. 8): more highly correlated | average bitterness in each of the three beverage bases versus Reb A ([2]; 360 ppm): lower average bitterness | average sweetness in each of the three beverage bases versus Reb A ([2]; 360 ppm): greater average sweetness | interaction between the sweetener and the three beverage bases (initial sweetness attribute plots) ([2]; 360 ppm (sucrose 5.4 brix), FIGS. 16-18): no significant interaction | Reb D Compared to Reb A % Ratio, Bitterness [2, 6]: 37% | Reb D Compared to Reb A % Ratio, Sweetness [2, 6]: 115% | average bitterness in each of the three beverage bases versus Reb A ([2]; 606 ppm): lower average bitterness | average sweetness in each of the three beverage bases versus Reb A ([2]; 606 ppm): greater average sweetness | interaction between the sweetener and the three beverage bases (initial sweetness attribute plots) ([2]; 606 ppm (sucrose 8.5 brix), FIGS. 13-15): no significant interaction | Reb D Compared to Reb A % Ratio, Bitterness [2, 7]: 30% | Reb D Compared to Reb A % Ratio, Sweetness [2, 7]: 117% | Reb D Compared to Reb A % Ratio, Bitterness [2, 8]: 40% | Reb D Compared to Reb A % Ratio, Sweetness [2, 8]: 150% | Bitterness [2, 9]: 18.1 | Sweetness [2, 9]: 63.4 | Bitterness [2, 10]: 14.1 | Sweetness [2, 10]: 73.9 | Bitterness [2, 11]: 17.4 | Sweetness [2, 11]: 105.5 | Bitterness [2, 12]: 7.7 | Sweetness [2, 12]: 60.6 | Bitterness [2, 13]: 9.8 | Sweetness [2, 13]: 74.3 | Bitterness [2, 14]: 10.7 | Sweetness [2, 14]: 58.9 | Bitterness [2, 15]: 7.4 | Sweetness [2, 15]: 85.1 | Bitterness ([2]; Water, 360 ppm): 7.7 | Sweetness ([2]; Water, 360 ppm): 60.6 | Bitterness ([2]; Water, 606 ppm): 9.8 | Sweetness ([2]; Water, 606 ppm): 74.3 | sweetness less than the sweetness of rebaudioside A [3]: approximately 10% | water solubility (Water solubility): low | potency, times as sweet as sugar [4]: 150-300 times as sweet as sugar | sweetness (value reported by Kinghorn) [5]: 221 | relative quality of taste, as compared to stevioside ([5]; stevioside is rated 0): +3

Source: patent US20130071521A1, “REBAUDIOSIDE D SWEETENERS AND FOOD PRODUCTS SWEETENED WITH REBAUDIOSIDE D” (PEPSICO, INC., priority 2007, published 2013)
